Data as given in PubChem BioAssay (NCI).
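Cells were grown in 96-well plates and exposed to each compound for 48 hours at five concentrations; endpoints were interpolated linearly between bracketing concentrations, or set to the highest concentration if not reached. The concentration for full growth arrest is given as TGI.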

Tests used:
Assay in all cases: NCI tumour cell line growth inhibition, 48 h
A498 renal = system: A498 renal
A549 NSCLC = system: A549 NSCLC
CAKI-1 renal = system: CAKI-1 renal
CCRF-CEM leukemia = system: CCRF-CEM leukemia
COLO 205 colon = system: COLO 205 colon
DLD-1 colon = system: DLD-1 colon
DMS 273 small cell lung = system: DMS 273 small cell lung
EKVX NSCLC = system: EKVX NSCLC
HCC-2998 colon = system: HCC-2998 colon
HCT-116 colon = system: HCT-116 colon
HCT-15 colon = system: HCT-15 colon
HL-60(TB) leukemia = system: HL-60(TB) leukemia
HOP-18 NSCLC = system: HOP-18 NSCLC
HOP-62 NSCLC = system: HOP-62 NSCLC
HOP-92 NSCLC = system: HOP-92 NSCLC
HT29 colon = system: HT29 colon
IGROV1 ovarian = system: IGROV1 ovarian
K-562 leukemia = system: K-562 leukemia
KM12 colon = system: KM12 colon
KM20L2 colon = system: KM20L2 colon
LOX IMVI melanoma = system: LOX IMVI melanoma
M19-MEL melanoma = system: M19-MEL melanoma
MALME-3M melanoma = system: MALME-3M melanoma
MCF7 breast = system: MCF7 breast
MOLT-4 leukemia = system: MOLT-4 leukemia
NCI-H226 lung = system: NCI-H226 lung
NCI-H23 lung = system: NCI-H23 lung
NCI-H460 lung = system: NCI-H460 lung
NCI-H522 lung = system: NCI-H522 lung
NCI/ADR-RES ovarian = system: NCI/ADR-RES ovarian
OVCAR-3 ovarian = system: OVCAR-3 ovarian
OVCAR-4 ovarian = system: OVCAR-4 ovarian
OVCAR-5 ovarian = system: OVCAR-5 ovarian
OVCAR-8 ovarian = system: OVCAR-8 ovarian
P388 leukemia = system: P388 leukemia
P388/ADR leukemia = system: P388/ADR leukemia
RPMI-8226 leukemia = system: RPMI-8226 leukemia
RXF 393 renal = system: RXF 393 renal
SF-268 CNS = system: SF-268 CNS
SF-295 CNS = system: SF-295 CNS
SF-539 CNS = system: SF-539 CNS
SK-MEL-2 melanoma = system: SK-MEL-2 melanoma
SK-MEL-28 melanoma = system: SK-MEL-28 melanoma
SK-MEL-5 melanoma = system: SK-MEL-5 melanoma
SK-OV-3 ovarian = system: SK-OV-3 ovarian
SN12C renal = system: SN12C renal
SN12K1 renal = system: SN12K1 renal
SNB-19 CNS = system: SNB-19 CNS
SNB-75 CNS = system: SNB-75 CNS
SNB-78 CNS = system: SNB-78 CNS
SW-620 colon = system: SW-620 colon
U251 CNS = system: U251 CNS
UACC-257 melanoma = system: UACC-257 melanoma
UACC-62 melanoma = system: UACC-62 melanoma
UO-31 renal = system: UO-31 renal
XF 498 CNS = system: XF 498 CNS
786-0 renal = system: 786-0 renal
ACHN renal = system: ACHN renal
DMS 114 small cell lung = system: DMS 114 small cell lung
LXFL 529 NSCLC = system: LXFL 529 NSCLC
M14 melanoma = system: M14 melanoma
RXF-631 renal = system: RXF-631 renal
SR leukemia = system: SR leukemia
TK-10 renal = system: TK-10 renal

For COc1cc2c(cc1Oc1ccc(OC)c3c1CC1c4c(cc(OC)c(OC)c4-3)CCN1C)CC1c3c(cc(OC)c(OC)c3-2)CCN1C (configuration not stated), the TGI (A498 renal) was 12.6 µM, the TGI (A549 NSCLC) was 25.9 µM and the TGI (CAKI-1 renal) was 8.06 µM. For the same compound, the TGI (CCRF-CEM leukemia) was 10.2 µM, the TGI (COLO 205 colon) was 2.95 µM and the TGI (DLD-1 colon) was 9.17 µM. It also gave a TGI (DMS 273 small cell lung) of 7.06 µM, a TGI (EKVX NSCLC) of 10.8 µM and a TGI (HCC-2998 colon) of 5.89 µM. The TGI (HCT-116 colon) was 4.49 µM, the TGI (HCT-15 colon) was 6.93 µM and the TGI (HL-60(TB) leukemia) was 2.72 µM. It also gave a TGI (HOP-18 NSCLC) of 23.8 µM, a TGI (HOP-62 NSCLC) of 32.5 µM and a TGI (HOP-92 NSCLC) of 12.4 µM. For the same compound, the TGI (HT29 colon) was 2.94 µM, the TGI (IGROV1 ovarian) was 18.7 µM and the TGI (K-562 leukemia) was 3.92 µM. It also gave a TGI (KM12 colon) of 9.33 µM, a TGI (KM20L2 colon) of 3.59 µM and a TGI (LOX IMVI melanoma) of 2.48 µM. It also gave a TGI (M19-MEL melanoma) of 3.37 µM, a TGI (MALME-3M melanoma) of 3.38 µM and a TGI (MCF7 breast) of 8.43 µM. The TGI (MOLT-4 leukemia) was 4.41 µM, the TGI (NCI-H226 lung) was 5.01 µM and the TGI (NCI-H23 lung) was 27.4 µM. The TGI (NCI-H460 lung) was 3.88 µM, the TGI (NCI-H522 lung) was 4.66 µM and the TGI (NCI/ADR-RES ovarian) was 18.3 µM. The TGI (OVCAR-3 ovarian) was 14.9 µM, the TGI (OVCAR-4 ovarian) was 10.4 µM and the TGI (OVCAR-5 ovarian) was 12.8 µM. For the same compound, the TGI (OVCAR-8 ovarian) was 16.3 µM, the TGI (P388 leukemia) was 4.02 µM and the TGI (P388/ADR leukemia) was 5.71 µM. The TGI (RPMI-8226 leukemia) was 3.97 µM, the TGI (RXF 393 renal) was 3.81 µM and the TGI (SF-268 CNS) was 14.8 µM. For the same compound, the TGI (SF-295 CNS) was 6.11 µM, the TGI (SF-539 CNS) was 3.39 µM and the TGI (SK-MEL-2 melanoma) was 3.79 µM. For the same compound, the TGI (SK-MEL-28 melanoma) was 3.44 µM, the TGI (SK-MEL-5 melanoma) was 2.92 µM and the TGI (SK-OV-3 ovarian) was 31.9 µM. It also gave a TGI (SN12C renal) of 19.3 µM, a TGI (SN12K1 renal) of 2.54 µM and a TGI (SNB-19 CNS) of 14.5 µM. It also gave a TGI (SNB-75 CNS) of 10.1 µM, a TGI (SNB-78 CNS) of 20.2 µM and a TGI (SW-620 colon) of 5.73 µM. For the same compound, the TGI (U251 CNS) was 4.19 µM, the TGI (UACC-257 melanoma) was 3.21 µM and the TGI (UACC-62 melanoma) was 3.65 µM. It also gave a TGI (UO-31 renal) of 17.7 µM and a TGI (XF 498 CNS) of 4.29 µM.
Compound Cc1ccc(S(=O)(=O)SCc2ccccc2CSS(=O)(=O)c2ccc(C)cc2)cc1 has a TGI (786-0 renal) of 34.4 µM, a TGI (A498 renal) greater than 100 µM and a TGI (A549 NSCLC) greater than 100 µM. The TGI (ACHN renal) was greater than 100 µM, the TGI (CAKI-1 renal) was 58.5 µM and the TGI (COLO 205 colon) was 31.1 µM. For the same compound, the TGI (DLD-1 colon) was 30 µM, the TGI (DMS 114 small cell lung) was greater than 100 µM and the TGI (DMS 273 small cell lung) was 44.2 µM. It also gave a TGI (EKVX NSCLC) greater than 100 µM, a TGI (HCC-2998 colon) greater than 100 µM and a TGI (HCT-116 colon) of 59.6 µM. It also gave a TGI (HCT-15 colon) of 48.6 µM, a TGI (HL-60(TB) leukemia) of 34.7 µM and a TGI (HOP-18 NSCLC) greater than 100 µM. For the same compound, the TGI (HOP-62 NSCLC) was greater than 100 µM, the TGI (HOP-92 NSCLC) was 51.7 µM and the TGI (HT29 colon) was 52.9 µM. It also gave a TGI (IGROV1 ovarian) greater than 100 µM, a TGI (K-562 leukemia) of 47 µM and a TGI (KM12 colon) greater than 100 µM. It also gave a TGI (KM20L2 colon) greater than 100 µM, a TGI (LOX IMVI melanoma) of 29.4 µM and a TGI (LXFL 529 NSCLC) of 32.6 µM. For the same compound, the TGI (M14 melanoma) was 47.3 µM, the TGI (M19-MEL melanoma) was 60.3 µM and the TGI (MALME-3M melanoma) was greater than 100 µM. The TGI (MOLT-4 leukemia) was 43.9 µM, the TGI (NCI-H226 lung) was greater than 100 µM and the TGI (NCI-H23 lung) was 46.4 µM. It also gave a TGI (NCI-H460 lung) greater than 100 µM, a TGI (NCI-H522 lung) of 22.8 µM and a TGI (OVCAR-3 ovarian) of 43.7 µM. The TGI (OVCAR-4 ovarian) was 33.9 µM, the TGI (OVCAR-8 ovarian) was 76.5 µM and the TGI (RPMI-8226 leukemia) was 43.1 µM. For the same compound, the TGI (RXF 393 renal) was 29.6 µM, the TGI (RXF-631 renal) was greater than 100 µM and the TGI (SF-268 CNS) was greater than 100 µM. The TGI (SF-295 CNS) was greater than 100 µM, the TGI (SF-539 CNS) was 36.2 µM and the TGI (SK-MEL-28 melanoma) was 36.6 µM. The TGI (SK-MEL-5 melanoma) was greater than 100 µM, the TGI (SK-OV-3 ovarian) was greater than 100 µM and the TGI (SN12C renal) was 33.6 µM. For the same compound, the TGI (SNB-19 CNS) was greater than 100 µM, the TGI (SNB-75 CNS) was greater than 100 µM and the TGI (SNB-78 CNS) was greater than 100 µM. The TGI (SR leukemia) was 43.5 µM, the TGI (SW-620 colon) was 31.8 µM and the TGI (TK-10 renal) was greater than 100 µM. For the same compound, the TGI (U251 CNS) was 89.5 µM, the TGI (UACC-257 melanoma) was greater than 100 µM and the TGI (UACC-62 melanoma) was 31 µM. The TGI (UO-31 renal) was greater than 100 µM and the TGI (XF 498 CNS) was 47.4 µM.
